Assay results published in patent publication US20140135319A1, “6-SUBSTITUTED IMIDAZOPYRAZINES FOR USE AS MPS-1 AND TKK INHIBITORS IN THE TREATMENT OF HYPERPROLIFERATIVE DISORDERS” (BAYER INTELLECTUAL PROPERTY GMBH, priority 2010, published 2014).

Molecular target: T1, human kinase Mps-1 (Homo sapiens, UniProt P33981)
T1 construct: N-terminally GST-tagged human full length recombinant Mps-1 kinase; GST (N); purchased Invitrogen, Karslruhe, Germany PV4071
T1 sequence (P33981 1-857): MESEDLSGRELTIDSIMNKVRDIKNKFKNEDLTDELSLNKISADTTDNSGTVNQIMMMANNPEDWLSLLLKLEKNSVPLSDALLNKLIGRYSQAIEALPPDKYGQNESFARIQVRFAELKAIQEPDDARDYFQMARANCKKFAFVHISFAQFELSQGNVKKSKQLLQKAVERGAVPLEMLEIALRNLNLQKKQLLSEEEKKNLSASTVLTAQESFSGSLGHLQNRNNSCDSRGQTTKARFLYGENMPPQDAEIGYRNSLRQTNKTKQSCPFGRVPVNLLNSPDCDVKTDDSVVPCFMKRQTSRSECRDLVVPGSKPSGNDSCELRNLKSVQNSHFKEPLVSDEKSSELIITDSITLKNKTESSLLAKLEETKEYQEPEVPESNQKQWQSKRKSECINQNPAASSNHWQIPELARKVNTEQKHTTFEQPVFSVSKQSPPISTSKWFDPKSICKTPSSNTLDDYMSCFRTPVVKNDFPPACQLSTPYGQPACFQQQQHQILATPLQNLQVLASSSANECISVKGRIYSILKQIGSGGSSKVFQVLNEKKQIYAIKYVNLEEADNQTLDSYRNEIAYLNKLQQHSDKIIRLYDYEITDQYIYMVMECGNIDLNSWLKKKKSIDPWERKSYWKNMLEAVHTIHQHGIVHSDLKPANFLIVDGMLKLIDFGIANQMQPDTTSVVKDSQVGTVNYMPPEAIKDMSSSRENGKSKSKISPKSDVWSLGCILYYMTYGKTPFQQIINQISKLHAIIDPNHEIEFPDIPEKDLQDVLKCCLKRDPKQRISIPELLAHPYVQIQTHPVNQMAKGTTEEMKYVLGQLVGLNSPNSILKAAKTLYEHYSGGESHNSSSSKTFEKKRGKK
Experiment: Mps-1 kinase assay (TR-FRET)
Type: biochemical
Conditions: GST-tagged human full length recombinant Mps-1; 10 μM ATP; 1 μM peptide substrate; 60 min at 22° C.
Outline: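 TR-FRET read-out: after 1 h binding at 22° C, Eu-labelled anti-phospho-Ser/Thr antibody transfers to SA-XLent on the phosphorylated biotinylated peptide. The enzyme is GST-tagged full-length human Mps-1, typically about 1 nM final, in the linear range.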

Question: How did the IC50 turn out when `O=C(NC1CC1)c1ccc(-c2cnc3c(NCC4CCCO4)nc(-c4ccn[nH]4)cn23)cc1F` (centres unmarked) [Example 1-63, N-cyclopropyl-2-fluoro-4-{6-(1H-pyrazol-5-yl)-8-[(tetrahydrofuran-2-ylmethyl)amino]imidazo [1,2-a]pyrazin-3-yl} benzamide] was run?
Answer: 95.5 nM

Question: For `Cn1nccc1CNc1nc(-c2ccncc2)cn2c(-c3ccc(C(=O)NC4CC4)c(F)c3)cnc12` [Example 1-64, N-cyclopropyl-2-fluoro-4-[8-{[(1-methyl-1H-pyrazol-5-yl)methyl]amino}-6-(pyridin-4-yl)imidazo[1,2-a]pyrazin-3-yl]benzamide], which IC50 is on record?
Answer: 6.5 nM

Question: Which IC50 does the source give for `Cn1nccc1CNc1nc(-c2ccoc2)cn2c(-c3ccc(C(=O)NC4CC4)c(F)c3)cnc12` [Example 1-65, N-cyclopropyl-2-fluoro-4-[6-(furan-3-yl)-8-{[(1-methyl-1H-pyrazol-5-yl)methyl]amino}imidazo [1,2-a]pyrazin-3-yl] benzamide] here?
Answer: 4.3 nM

Question: For `Cn1nccc1CNc1nc(-c2ccn[nH]2)cn2c(-c3ccc(C(=O)NC4CC4)c(F)c3)cnc12` [Example 1-66, N-cyclopropyl-2-fluoro-4-[8-{[(1-methyl-1H-pyrazol-5-yl)methyl]amino}-6-(1H-pyrazol-5-yl)imidazo[1,2-a]pyrazin-3-yl]benzamide], which IC50 is on record?
Answer: 30.5 nM

Question: How did the IC50 turn out when `Cn1nccc1CNc1nc(C2=CCOCC2)cn2c(-c3ccc(C(=O)NC4CC4)c(F)c3)cnc12` [Example 1-67, N-cyclopropyl-4-[6-(3,6-dihydro-2H-pyran-4-yl)-8-{[(1-methyl-1H-pyrazol-5-yl)methyl]amino}imidazo[1,2-a]pyrazin-3-yl]-2-fluoro-benzamide] was run?
Answer: 15.7 nM

Question: With `Cc1cc(-c2cn3c(-c4ccc(C(=O)NC5CC5)c(C)c4)cnc3c(NCCC(F)(F)F)n2)ccn1` [Example 1-68, N-cyclopropyl-2-methyl-4-{6-(2-methylpyridin-4-yl)-8-[(3,3,3-trifluoro-propyl)amino]imidazo [1,2-a]pyrazin-3-yl} benzamide] as the compound, how does the IC50 read?
Answer: 1.5 nM

Question: `Cc1cc(-c2cnc3c(NCCC(F)(F)F)nc(-c4cnn(C)c4)cn23)ccc1C(=O)NC1CC1` [Example 1-69, N-cyclopropyl-2-methyl-4-{6-(1-methyl-1H-pyrazol-4-yl)-8-[(3,3,3-trifluoropropyl)amino]imidazo[1,2-a]pyrazin-3-yl}benzamide] was tested. Which IC50 did it give?
Answer: 3.8 nM

Question: With `Cc1cc(-c2cnc3c(NCCC(F)(F)F)nc(-c4cccnc4)cn23)ccc1C(=O)NC1CC1` [Example 1-70, N-cyclopropyl-2-methyl-4-{6-(pyridin-3-yl)-8-[(3,3,3-trifluoropropyl)amino]imidazo[1,2-a]pyrazin-3-yl}benzamide] as the compound, how does the IC50 read?
Answer: 4.2 nM

Question: Which IC50 does the source give for `Cc1cc(-c2cnc3c(NCCC(F)(F)F)nc(-c4ccoc4)cn23)ccc1C(=O)NC1CC1` [Example 1-71, N-cyclopropyl-4-{6-(furan-3-yl)-8-[(3,3,3-tri-fluoropropyl)amino]imidazo[1,2-a]pyrazin-3-yl}-2-methylbenzamide] here?
Answer: 3.9 nM

Question: For `CCOc1ccc(-c2cn3c(-c4ccc(C(=O)NC5CC5)c(C)c4)cnc3c(NCCC(F)(F)F)n2)cn1` [Example 1-72, N-cyclopropyl-4-{6-(6-ethoxypyridin-3-yl)-8-[(3,3,3-trifluoropropyl)amino]imidazo[1,2-a]pyrazin-3-yl}-2-methyl-benzamide], which IC50 is on record?
Answer: 9.9 nM

Question: How did the IC50 turn out when `Cc1cc(-c2cnc3c(NCCC(F)(F)F)nc(-c4cncnc4)cn23)ccc1C(=O)NC1CC1` [Example 1-73, N-cyclopropyl-2-methyl-4-{6-(pyrimidin-5-yl)-8-[(3,3,3-trifluoropropyl)amino]imidazo[1,2-a]pyrazin-3-yl}benzamide] was run?
Answer: 21.4 nM

Question: With `Cc1cc(-c2cnc3c(NCCC(F)(F)F)nc(-c4c(C)noc4C)cn23)ccc1C(=O)NC1CC1` [Example 1-74, N-cyclopropyl-4-{6-(3,5-dimethyl-1,2-oxazol-4-yl)-8-[(3,3,3-trifluoro-propyl)amino]imidazo [1,2-a]pyrazin-3-yl}-2-methylbenzamide] as the compound, how does the IC50 read?
Answer: 4.1 nM

Question: For `Cc1cc(-c2cnc3c(NCCC(F)(F)F)nc(-c4cccn4C)cn23)ccc1C(=O)NC1CC1` [Example 1-75, N-cyclopropyl-2-methyl-4-{6-(1-methyl-1H-pyrrol-2-yl)-8-[(3,3,3-trifluoro-propyl)amino]imidazo [1,2-a]pyrazin-3-yl} benzamide], which IC50 is on record?
Answer: 3.8 nM

Question: With `Cc1cc(-c2cnc3c(NCCC(F)(F)F)nc(C4=CCNCC4)cn23)ccc1C(=O)NC1CC1` [Example 1-76, N-cyclopropyl-2-methyl-4-{6-(1,2,3,6-tetrahydro-pyridin-4-yl)-8-[(3,3,3-trifluoropropyl)amino]imidazo[1,2-a]pyrazin-3-yl}benzamide] as the compound, how does the IC50 read?
Answer: 13 nM

Question: Which IC50 does the source give for `Cc1cc(-c2cnc3c(NCCC(F)(F)F)nc(-c4cc[nH]n4)cn23)ccc1C(=O)NC1CC1` [Example 1-77, N-cyclopropyl-2-methyl-4-{6-(1H-pyrazol-3-yl)-8-[(3,3,3-trifluoropropyl)amino]imidazo[1,2-a]pyrazin-3-yl}benzamide] here?
Answer: 3.3 nM

Question: Which IC50 does the source give for `Cc1cc(-c2cnc3c(NCCC(F)(F)F)nc(-c4cn[nH]c4)cn23)ccc1C(=O)NC1CC1` [Example 1-78, N-cyclopropyl-2-methyl-4-{6-(1H-pyrazol-4-yl)-8-[(3,3,3-trifluoro-propyl)amino]imidazo [1,2-a]pyrazin-3-yl} benzamide] here?
Answer: 4.7 nM

Question: With `Cc1cc(-c2cnc3c(NCCC(F)(F)F)nc(C4=CCSCC4)cn23)ccc1C(=O)NC1CC1` [Example 1-79, N-cyclopropyl-4-{6-(3,6-dihydro-2H-thiopyran-4-yl)-8-[(3,3,3-trifluoro-propyl)amino]imidazo [1,2-a]pyrazin-3-yl}-2-methylbenzamide] as the compound, how does the IC50 read?
Answer: 2.8 nM

Question: Which IC50 does the source give for `O=C(NC1CC1)c1ccc(-c2cnc3c(NCCCO)nc(-c4ccncc4)cn23)cc1` [Example 1-85, N-cyclopropyl-4-{8-[(3-hydroxypropyl)amino]-6-(pyridin-4-yl)imidazo[1,2-a]pyrazin-3-yl}benzamide] here?
Answer: 9.1 nM

Question: `N#CCCNc1nc(-c2cccc(CC(N)=O)c2)cn2c(-c3ccc(C(=O)NC4CC4)cc3)cnc12` [Example 1-86, 4-{6-[3-(2-amino-2-oxo-ethyl)phenyl]-8-[(2-cyano-ethyl)amino]imidazo[1,2-a]pyrazin-3-yl}-N-cyclo-propylbenzamide] was tested. Which IC50 did it give?
Answer: 3.9 nM

Question: `Cc1ccc(-c2cn3c(-c4ccc(C(=O)NC5CC5)cc4)cnc3c(NCC(C)C)n2)cc1CC(N)=O` [Example 1-87, 4-{6-[3-(2-amino-2-oxoethyl)-4-methylphenyl]-8-(isobutyl-amino)imidazo[1,2-a]pyrazin-3-yl}-N-cyclopropyl-benzamide] was tested. Which IC50 did it give?
Answer: 2.3 nM

Question: `CC(C)CNc1nc(-c2cccc(CC(=O)O)c2)cn2c(-c3ccc(C(=O)NC4CC4)cc3)cnc12` [Example 1-88, (3-{3-[4-(cyclopropyl-carbamoyl)phenyl]-8-(iso-butylamino)imidazo[1,2-a]pyrazin-6-yl}phenyl)acetic acid] was tested. Which IC50 did it give?
Answer: 50.3 nM

Question: How did the IC50 turn out when `NC(=O)Cc1cccc(-c2cn3c(-c4ccc(C(=O)NC5CC5)cc4)cnc3c(NCCCO)n2)c1` [Example 1-89, 4-{6-[3-(2-amino-2-oxo-ethyl)phenyl]-8-[(3-hydroxy-propyl)amino]imidazo[1,2-a]pyrazin-3-yl}-N-cyclopropyl-benzamide] was run?
Answer: 4.8 nM

Question: How did the IC50 turn out when `CC(C)(O)CNc1nc(-c2ccncc2)cn2c(-c3ccc(C(=O)NC4CC4)cc3)cnc12` [Example 1-90, N-cyclopropyl-4-{8-[(2-hydroxy-2-methylpropyl)amino]-6-(pyridin-4-yl)imidazo[1,2-a]pyrazin-3-yl} benzamide] was run?
Answer: 5 nM

Question: `CC(C)(O)CNc1nc(-c2cccc(CC(N)=O)c2)cn2c(-c3ccc(C(=O)NC4CC4)cc3)cnc12` [Example 1-91, 4-{6-[3-(2-Amino-2-oxo-ethyl)phenyl]-8-[(2-hydroxy-2-methylpropyl)amino]imidazo[1,2-a]pyrazin-3-yl}-N-cyclopropylbenzamide] was tested. Which IC50 did it give?
Answer: 4 nM

Question: For `Cn1nccc1CNc1nc(-c2cccc(CC(N)=O)c2)cn2c(-c3ccc(C(=O)NC4CC4)cc3)cnc12` [Example 1-92, 4-(6-[3-(2-Amino-2-oxo-ethyl)phenyl]-8-{[(1-methyl-1H-pyrazol-5-yl)methyl]amino}imidazo[1,2-a]pyrazin-3-yl)-N-cyclopropyl benzamide], which IC50 is on record?
Answer: 3.8 nM

Question: With `Cn1cc(CNc2nc(-c3cccc(CC(N)=O)c3)cn3c(-c4ccc(C(=O)NC5CC5)cc4)cnc23)cn1` [Example 1-93, 4-(6-[3-(2-Amino-2-oxo-ethyl)phenyl]-8-{[(1-methyl-1H-pyrazol-4-yl)methyl]amino}imidazo[1,2-a]pyrazin-3-yl)-N-cyclopropyl benzamide] as the compound, how does the IC50 read?
Answer: 4.9 nM
